What was measured:
OX2 receptor = OX2 receptor (Homo sapiens (Human), UniProt O43614); assay: In vitro activity test (Cisbio IP-one, CHO-K1-OX2 cells, antagonism of EC80 agonist); type: cell-based
Procedure: (§1) (1) Preparation of a reaction buffer (1×Stimulation buffer) required for the experiment: The 5×Stimulation buffer and ddH2O in the Cisbio IP-one kit were diluted in a ratio of 1:4 for later use.
(§2) (2) Compound preparation: The compound was diluted with DMSO to obtain a 5 mM stock solution, followed by a 3.16-fold dilution to obtain 10 gradients, and then the prepared compound was diluted with the Stimulation buffer to the corresponding concentrations (4×) for later use.
(§3) (3) Cell preparation: CHO-K1-OX1 and CHO-K1-OX2 cells on the culture dish were digested with trypsin, and the cells were washed off with culture medium and collected into 5 mL centrifuge tubes. The cells were centrifuged at 1000 rpm for 5 min, and the supernatant was discarded. 3 mL of PBS was added, and the mixture was gently pipetted to be mixed well. The cells were centrifuged again at 1000 rpm for 5 min, and the supernatant was discarded. The cells were resuspended in 1×Stimulation buffer and counted using a Countstar cell counter, and the cell density was adjusted to 1.71×10^6 cells/mL for later use.
(§4) (4) Cell addition: The cell suspensions were added to assay plates at 7 μL/well (i.e., about 12,000 cells/well).
(§5) (5) Compound addition: The compound diluted with the Stimulation buffer was added to the assay plates described above at 3.5 μL/well.
(§6) (6) Reaction and incubation: After gentle shaking, the assay plates were incubated at 37° C. for 30 min.
(§7) (7) EC80 agonist addition: 4×Orexin A (OX1 receptor) and 4×Orexin 2 receptor agonist (OX2 receptor) solutions of EC80 were added at 3.5 μL/well.
(§8) (8) Reaction and incubation: After gentle shaking, the assay plates were incubated at 37° C. for 45 min.
(§9) (9) Detection reagent addition: IP1-d2 and Anti-IP1 cryptate were separately diluted in a 1:20 ratio with the Lysis & detection buffer in the Cisbio IP-one detection kit, and the diluted IP1-d2 and Anti-IP1 cryptate described above were added to the assay plates, each at 3 μL/well. After shaking, the assay plates were left to stand at room temperature for 60 min.
(§10) (10) Experimental readings: The plate was read on Envision, readings from the 665 nm and 615 nm channels were taken, and the ratio of 665 nm/615 nm readings was calculated.
(§11) Based on the antagonistic effect values of the compound sample at different concentration test points, antagonistic curves of the compound sample against the orexin receptors were fitted using GraphPad Prism software, and the IC50 was calculated.

ICR mice [1] = assay: Pentobarbital sodium synergistic sleep test; type: in vivo; conditions: male ICR mice, pentobarbital sodium 45 mg/kg ip, Mean±SD
Procedure: Male ICR mice aged 6-9 weeks were randomly divided into groups based on body weight balance, with 8 mice per group, and the groups were given blank vehicle and 3, 10, and 30 mg/kg of the test compound, respectively. After 5 min, pentobarbital sodium was intraperitoneally injected at 45 mg/kg. The moments when righting reflexes disappeared and the moments when righting reflexes reappeared in mice were recorded. Sleep latency=moment when righting reflex disappeared−moment when pentobarbital sodium was administered, and sleep duration=moment when righting reflex reappeared−moment when righting reflex disappeared. […] Experimental data were expressed as mean±standard deviation (Mean±SD). One-way ANOVA analysis was performed using SPSS 21.0 statistical software, and pairwise comparisons were performed using Dunnett's test, with p<0.05 represented by *.

OX1 receptor = OX1 receptor (Homo sapiens (Human), UniProt O43613); assay: In vitro activity test (Cisbio IP-one, CHO-K1-OX1 cells, antagonism of EC80 Orexin A); type: cell-based
Chain of OX1 receptor (O43613 whole entry): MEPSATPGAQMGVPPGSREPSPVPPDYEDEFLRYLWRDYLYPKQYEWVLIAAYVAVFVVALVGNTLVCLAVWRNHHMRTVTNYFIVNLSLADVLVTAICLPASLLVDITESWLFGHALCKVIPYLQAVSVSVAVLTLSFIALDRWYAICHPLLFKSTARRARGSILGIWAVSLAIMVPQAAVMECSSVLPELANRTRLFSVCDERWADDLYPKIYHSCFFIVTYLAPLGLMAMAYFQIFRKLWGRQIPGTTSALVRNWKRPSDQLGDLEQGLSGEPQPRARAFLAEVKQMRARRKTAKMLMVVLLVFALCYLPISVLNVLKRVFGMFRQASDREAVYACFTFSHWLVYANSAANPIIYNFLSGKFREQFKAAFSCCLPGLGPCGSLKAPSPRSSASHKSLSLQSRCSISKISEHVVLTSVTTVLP
Procedure: as §1, §2, §3, §4, §5, §6, §7, §8, §9, §10, §11

ICR mice [2] = assay: Autonomous activities of mice; type: in vivo; conditions: male ICR mice; for Inhibition rate (%): vs vehicle; for Movement distance (m): within 60 min, Mean±SD
Procedure: Male ICR mice aged 6-9 weeks were randomly divided into groups based on body weight balance, with 8 or 9 mice per group, and the groups were given blank vehicle and 10, 30, and 100 mg/kg of the test compound, respectively. The animals were placed in a test chamber immediately after administration, and the activity distances of the animals within 60 min were recorded and analyzed with Top Scan Version 3.0. […] Experimental data were expressed as mean±standard deviation (Mean±SD). One-way ANOVA analysis was performed using SPSS 21.0 statistical software, and pairwise comparisons were performed using Dunnett's test, with p<0.05 represented by *.

[3] = Rat pharmacokinetic parameters in rat plasma; type: in vivo; conditions: male SD rats; for bioavailability: PO 10 mg/kg vs iv 1 mg/kg, read-out: F (%) oral bioavailability
Procedure: Healthy male SD rats aged 6-9 weeks were selected and randomly divided into two groups, with 3 rats in each group. One group was given 1 mg/kg of the test compound by intravenous injection, and the other group was given 10 mg/kg of the test compound by gavage. Whole blood was collected from the animals in the intravenous group and the gavage group before administration and 0.083, 0.25, 0.5, 1.0, 2.0, 4.0, 7.0, 10.0, and 24.0 h after administration and centrifuged to obtain plasma samples.
All biological samples were quantitatively analyzed using the LC-MS/MS method. Pharmacokinetic parameters were calculated using the non-compartmental model linear-log trapezoidal method using WinNonlinTMVersion7.0 (Pharsight, Mountain View, CA) pharmacokinetic software. AUC0-last represents the area under the plasma concentration-time curve from time point zero to the last detectable concentration time point; PO represents oral administration; iv represents intravenous, Cmax represents the peak concentration, and F % represents oral bioavailability.

Chain of OX2 receptor (O43614 whole entry): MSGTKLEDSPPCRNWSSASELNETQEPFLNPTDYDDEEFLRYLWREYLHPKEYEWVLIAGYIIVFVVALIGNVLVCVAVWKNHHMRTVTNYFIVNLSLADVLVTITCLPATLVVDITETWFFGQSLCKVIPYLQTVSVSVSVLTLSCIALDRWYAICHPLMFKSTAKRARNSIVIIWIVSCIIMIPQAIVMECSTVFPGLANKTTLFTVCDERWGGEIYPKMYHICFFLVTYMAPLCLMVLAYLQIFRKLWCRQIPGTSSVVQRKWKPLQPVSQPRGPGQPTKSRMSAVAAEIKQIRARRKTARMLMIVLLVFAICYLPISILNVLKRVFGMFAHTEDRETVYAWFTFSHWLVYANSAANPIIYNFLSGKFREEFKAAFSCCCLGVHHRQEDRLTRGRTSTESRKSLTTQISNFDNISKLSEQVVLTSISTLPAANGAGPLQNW

Structure (SMILES) | IC50 (OX2 receptor) | IC50 (OX1 receptor) | AUC(0-t) ([3]; PO 10 mg/kg) | Cmax ([3]; PO 10 mg/kg) | bioavailability [3] | AUC(0-t) ([3]; iv 1 mg/kg) | Cmax ([3]; iv 1 mg/kg) | Sleep duration (ICR mice [1]; 3 mg/kg) | Sleep latency (ICR mice [1]; 3 mg/kg) | Sleep duration (ICR mice [1]; 10 mg/kg) | Sleep latency (ICR mice [1]; 10 mg/kg) | Sleep duration (ICR mice [1]; 30 mg/kg) | Sleep latency (ICR mice [1]; 30 mg/kg) | Inhibition rate (%) (ICR mice [2]; 10 mg/kg) | Movement distance (m) (ICR mice [2]; 10 mg/kg) | Inhibition rate (%) (ICR mice [2]; 30 mg/kg) | Movement distance (m) (ICR mice [2]; 30 mg/kg) | Inhibition rate (%) (ICR mice [2]; 100 mg/kg) | Movement distance (m) (ICR mice [2]; 100 mg/kg)
Cc1cc(C)nc(N2C[C@H]3CN(C(=O)c4c(-c5cccs5)nn5ccccc45)C[C@H]3C2)n1 [Example 5, ((3aR,6aS)-5-(4,6-dimethylpyrimidin-2-yl)hexahydropyrrolo[3,4-c]pyrrol-2(1H)-yl)(2-(thiophen-2-yl)pyrazolo[1,5-a]pyridin-3-yl)methanone] | < 100 nM | > 1000 nM | – | – | – | – | – | – | – | – | – | – | – | 2.37% | 63.64 ± 33.70 m | 46.97% | 34.56 ± 10.71 m | 49.17% | 33.13 ± 14.64 m
Cc1cc(C)nc(N2C[C@H]3CN(C(=O)c4c(-c5ccncc5)nn5ccccc45)C[C@H]3C2)n1 [Example 34, ((3aR,6aS)-5-(4,6-dimethylpyrimidin-2-yl)hexahydropyrrolo[3,4-c]pyrrol-2(1H)-yl)(2-(pyridin-4-yl)pyrazolo[1,5-a]pyridin-3-yl)methanone] | < 100 nM | > 1000 nM | 560 ng·h/mL | 925 ng/mL | 25.3% | 221 ng·h/mL | 715 ng/mL | – | – | – | – | – | – | 8.19% | 59.84 ± 19.89 m | 28.13% | 46.84 ± 16.61 m | 50.36% | 32.36 ± 20.35 m
Cc1cc(C)nc(N2C[C@H]3CN(C(=O)c4c(-c5cccs5)nn5cc(F)ccc45)C[C@H]3C2)n1 [Example 37, [(3aR,6aS)-5-(4,6-dimethylpyrimidin-2-yl)hexahydropyrrolo[3,4-c]pyrrol-2(1H)-yl][6-fluoro-2-(thiophen-2-yl)pyrazolo[1,5-a]pyridin-3-yl]methanone] | < 100 nM | > 1000 nM | – | – | – | – | – | – | – | – | – | – | – | 5.03% | 61.90 ± 16.82 m | 37.27% | 40.89 ± 21.03 m | 39.52% | 39.42 ± 13.92 m

Further lines, with some results ahead:

IC50 (OX2 receptor) | IC50 (OX1 receptor) | AUC(0-t) ([3]; PO 10 mg/kg) | Cmax ([3]; PO 10 mg/kg) | bioavailability [3] | AUC(0-t) ([3]; iv 1 mg/kg) | Cmax ([3]; iv 1 mg/kg) | Structure (SMILES) | Sleep duration (ICR mice [1]; 3 mg/kg) | Sleep latency (ICR mice [1]; 3 mg/kg) | Sleep duration (ICR mice [1]; 10 mg/kg) | Sleep latency (ICR mice [1]; 10 mg/kg) | Sleep duration (ICR mice [1]; 30 mg/kg) | Sleep latency (ICR mice [1]; 30 mg/kg) | Inhibition rate (%) (ICR mice [2]; 10 mg/kg) | Movement distance (m) (ICR mice [2]; 10 mg/kg) | Inhibition rate (%) (ICR mice [2]; 30 mg/kg) | Movement distance (m) (ICR mice [2]; 30 mg/kg) | Inhibition rate (%) (ICR mice [2]; 100 mg/kg) | Movement distance (m) (ICR mice [2]; 100 mg/kg)
< 100 nM | > 1000 nM | 2000 ng·h/mL | 2780 ng/mL | 56.3% | 355 ng·h/mL | 875 ng/mL | Cc1cc(C)nc(N2C[C@H]3CN(C(=O)c4c(-c5ncccc5F)cn5ccccc45)C[C@H]3C2)n1 [Example 3, ((3aR,6aS)-5-(4,6-dimethylpyrimidin-2-yl)hexahydropyrrolo[3,4-c]pyrrol-2(1H)-yl)(2-(3-fluoropyridin-2-yl)indolizin-1-yl)methanone] | 57.88 ± 23.72 min | 15.21 ± 4.60 min | 62.73 ± 29.84 min | 17.72 ± 6.04 min | 63.15 ± 34.38 min | 24.28 ± 8.97 min | −5.22% | 68.58 ± 24.42 m | 9.82% | 58.78 ± 18.31 m | 40.63% | 38.69 ± 13.98 m
< 100 nM | > 1000 nM | 353 ng·h/mL | 668 ng/mL | 24.6% | 143 ng·h/mL | 439 ng/mL | Cc1cc(C)nc(N2C[C@H]3CN(C(=O)c4c(-c5ccccn5)nn5cc(F)ccc45)C[C@H]3C2)n1 [Example 30, ((3aR,6aS)-5-(4,6-dimethylpyrimidin-2-yl)hexahydropyrrolo[3,4-c]pyrrol-2(1H)-yl)(6-fluoro-2-(pyridin-2-yl)pyrazolo[1,5-a]pyridin-3-yl)methanone] | 62.34 ± 17.87 min | 5.03 ± 0.51 min | 66.79 ± 14.88 min | 5.17 ± 0.81 min | 65.61 ± 19.83 min | 6.52 ± 5.25 min | – | – | – | – | – | –
< 100 nM | > 1000 nM | – | – | – | – | – | Cc1cc(C)nc(N2C[C@H]3CN(C(=O)c4c(-c5cccnc5)nn5ccccc45)C[C@H]3C2)n1 [Example 36, [(3aR,6aS)-5-(4,6-dimethylpyrimidin-2-yl)hexahydropyrrolo[3,4-c]pyrrol-2(1H)-yl][2-(pyridin-3-yl)pyrazolo[1,5-a]pyridin-3-yl]methanone] | 50.35 ± 9.35 min | 10.21 ± 4.49 min | 38.89 ± 10.66 min | 10.58 ± 5.65 min | 56.19 ± 27.74 min | 8.84 ± 3.67 min | 32.08% | 44.27 ± 13.76 m | 34.37% | 42.78 ± 20.27 m | 57.33% | 27.81 ± 19.12 m

From patent US20250188095A1, “DISUBSTITUTED OCTAHYDROPYRROLO[3,4-c]PYRROLYL METHYL KETONE DERIVATIVE AND USE THEREOF” (JIANGSU NHWA PHARMACEUTICAL CO., LTD, priority 2022, published 2025)
